Patent US7378391B2, “Cyclosporin alkyne analogues and their pharmaceutical uses” (AMR Technology, Inc., priority 2004, dated 2008)
Values after ≈ are worked out from the molar mass of the structure shown.

Legend:
[1] = literature value, Rich et al.; cited from earlier work
[2] = tested on: concanavalin A (ConA)-stimulated murine splenocytes; experiment: Concanavalin A-stimulated splenocyte assay ([3H]thymidine incorporation); format: cell-based, BALB/c mice; details: for IC50: immunosuppressive activity of the novel cyclosporin alkyne analogue compound
Method: Male BALB/c mice, at 5 to 7 weeks of age, were sacrificed by CO2 inhalation. Spleens were removed and dissociated by pushing through a nylon cell strainer. The splenocytes were washed in RPMI 1640/5% fetal calf serum (FCS) and pelleted at 400×g. Red blood cells were then lysed by resuspending the cell pellet in ACK lysis buffer (150 mM NH4Cl, 1 mM KHCO3, 0.1 mM EDTA, 3 mL per spleen) for 10 min at room temperature. After pelleting at 400×g, the cells were washed by resuspending in RPMI 1640/5% FCS and repelleting. The cell pellet was resuspended in RPMI 1640/5% FCS and again passed through a cell strainer to remove cell aggregates. The cells were then counted and adjusted to 2×10^6 cells/ml in RPMI 1640/10% FCS/50 μM 2-mercaptoethanol. Cell viability was assessed by Trypan blue staining. […] The cells were cultured in a 37° C. CO2 incubator for 2 days and then pulsed with 1 μCi of [^3H]thymidine for 6 hours. Cells were harvested onto filtermats with a TomTec 96 well plate harvester and lysed with H2O. The filtermat and scintillation fluid were sealed in a plastic sleeve. [^3H]thymidine incorporation was measured with a Wallac Trilux plate counter. Initial screens were done at a fixed value of 100 ng/ml test compound. IC50s were calculated from 7 point concentration-response curves using GraphPad software.

Row | SMILES | relative immunosuppressive activity compared to cyclosporin A [1] | IC50 [2] | immunosuppressive activity (as determined by IC50) relative to ISATX247 ([2]; FIG. 1, compared to ISATX247) | immunosuppressive activity (as determined by IC50) relative to cyclosporin A ([2]; FIG. 1, compared to cyclosporin A) | potency in immunosuppression compared to cyclosporin A and ISATX247 ([2]; FIG. 1 legend)
1 | CC#CC[C@@H](C)[C@@H](O)[C@H]1C(=O)N[C@@H](CC)C(=O)N(C)CC(=O)N(C)[C@@H](CC(C)C)C(=O)N[C@@H](C(C)C)C(=O)N(C)[C@@H](CC(C)C)C(=O)N[C@@H](C)C(=O)N[C@H](C)C(=O)N(C)[C@@H](CC(C)C)C(=O)N(C)[C@@H](CC(C)C)C(=O)N(C)[C@@H](C(C)C)C(=O)N1C [known cyclosporin alkyne] | 10% |  |  |  | 
2 | CCC1NC(=O)C(C(O)C(C)CC=CC#CBr)N(C)C(=O)C(C(C)C)N(C)C(=O)C(CC(C)C)N(C)C(=O)C(CC(C)C)N(C)C(=O)C(C)NC(=O)C(C)NC(=O)C(CC(C)C)N(C)C(=O)C(C(C)C)NC(=O)C(CC(C)C)N(C)C(=O)CN(C)C1=O (stereo not shown) [Example 15, cyclosporin alkynyl bromide] |  | 8 ng/mL |  |  | 
3 | CC[C@@H]1NC(=O)[C@H]([C@H](O)[C@H](C)C/C=C/C#CC2CC2)N(C)C(=O)[C@H](C(C)C)N(C)C(=O)[C@H](CC(C)C)N(C)C(=O)[C@H](CC(C)C)N(C)C(=O)[C@@H](C)NC(=O)[C@H](C)NC(=O)[C@H](CC(C)C)N(C)C(=O)[C@H](C(C)C)NC(=O)[C@H](CC(C)C)N(C)C(=O)CN(C)C1=O [Example 33, cyclosporin cyclopropyl alkyne] |  | 9 ng/mL (≈ 7.18 nM) | equipotent | up to two times more active | enhanced or similar potency
4 | CCC1NC(=O)C(C(O)C(C)CC=CC#CI)N(C)C(=O)C(C(C)C)N(C)C(=O)C(CC(C)C)N(C)C(=O)C(CC(C)C)N(C)C(=O)C(C)NC(=O)C(C)NC(=O)C(CC(C)C)N(C)C(=O)C(C(C)C)NC(=O)C(CC(C)C)N(C)C(=O)CN(C)C1=O (stereo not shown) [Example 13, cyclosporin alkynyl iodide] |  | 1 ng/mL |  |  | 
